Measurements: patent publication US8372808B2, “Suppression of glial fibrillary acidic protein” (Wisconsin Alumni Research Foundation, priority 2008, dated 2013)
Where a name gives a salt, the structure may show the parent alone. Read-outs that look alike come from different tables or passages of the source.

Columns and labels:
[1] = test system: mGFAP protein; test: GFAP protein levels by ELISA in 172.9 cells treated with betulinic acid derivatives; assay type: cell-based, mouse; details: 7 days of treatment, 0-20 μM
Description: FIG. 9A-D are graphs showing the effects of betulinic acid and betulinic acid derivatives on mGFAP protein levels in 172.9 cells after 7 days of treatment. In the graphs, ester and amide forms of various compounds are paired for comparison.
172.9 cells were used to test the effects of betulinic acid and betulinic acid derivatives on GFAP promoter activity and GFAP protein levels. Experiments were performed as previously described. Each of eight compounds (D-altroside (ester); D-altroside (amide); D-xyloside (ester); D-xyloside (amide); aglycon (ester); aglycon (amide); betulinic acid; 3-amino betulinic acid) was tested at a concentration of 0 μM, 0.1 μM, 0.5 μM, 1 μM, 5 μM, 10 μM, 15 μM, and 20 μM. […] Toxicity of the compounds was also evaluated.

[2] = test system: 2.2 kb human GFAP promoter; test: hGFAP promoter luciferase activity assay in 172.9 cells (primary astrocytes from dual luciferase transgenic mice); assay type: cell-based; details: for effect on GFAP promoter activity (luciferase expression driven by the hGFAP promoter): 172.9 cells, 3 days of treatment, 0-20 μM; for % GFAP reductions, luciferace expression from hGFAP promoter: tertiary screen, 48 hr exposure, at the MTDcc
Description: Cell-based assays were performed as four different screens using enriched cortical primary astrocyte cultures developed from transgenic mice expressing both firefly and Renilla luciferase reporter genes were generated. Briefly, the'firefly luciferase was placed under the control of a 2.2 kb human GFAP promoter to monitor GFAP transcription, and the Renilla luciferase was placed under the control of a 0.5 kb human GAPDH (glyceraldehyde 3-phosphate dehydrogenase) promoter to monitor transcription of a housekeeping gene for signal normalization. See section B, below for more detail regarding the development of transgenic mouse strains. Cells used in the following examples (e.g., the cortical primary astrocyte cells termed “172.9 cells,” described below) were developed from the transgenic mice described in section B.
Briefly, the cortices from individual pups were freed of meninges and placed into DMEM (Gibco) without serum, mechanically disassociated into single cells, suspended in medium containing DMEM supplemented with 10% fetal bovine serum (FBS; Hyclone), 100 U/ml penicillin, 100 μg/ml streptomycin (Gibco), seeded into T25 flasks (one brain per flask), and maintained in a humidified 5% CO2 atmosphere at 37° C. […] Medium was changed every 3 days. At 14-16 days in vitro (DIV), the flasks were shaken overnight at 200 rpm to remove oligodendrocytes and microglia. […] The cells were then suspended in DMEM with 10% FBS and plated (“passage 2”) on either 35 mm dishes, […], or 96-well plates (Corning) as needed. Cells were grown for varying days in vitro (DIV) at passage 2 and then used for various experiments. Tissue culture dishes and plates were pre-coated with 100 μg/ml poly-L-lysine for 1 h in a humidified 5% CO2 atmosphere at 37° C., and then allowed to air dry. […] Cell density was measured with the Vi-CELL cell counter (Beckman Coulter) or hemocytometer by the trypan-blue exclusion method. For simplicity, cells are referred to as “172.9 cells.”
Briefly, 172.9 cells were plated on poly-L coated white 96-well plates at a density of 5000 cells per well, in 100 μl DMEM with 10% FBS. At twenty-four hours, cells were exposed to the different compounds at a final concentration of 10 μM (diluted from a 50 mM stock) prepared in new medium (DMEM with 10% FBS). […] After exposure to compounds, luciferase activity in the primary and secondary screenings was determined by adding 30 μl of Bright-Glo™ reagent (Promega) to the 100 μl of media and cells of each well in the white 96-well plates with the Biomek® FX liquid handler (Beckman Coulter). After incubation for 1 minute at room temperature, signals were measured with the Safire 2 plate reader using Magellan™ software (Tecan). Other specific methods and equipment are known in the art and can be used to measure luciferase expression levels. This assay method is termed the “hGFAP promoter luciferase activity assay.” A reduction in luciferase expression as determined by this assay is termed “hGFAP promoter luciferase reduction.” For some assays that were aimed at confirming results of the initial screens, the same amount of Bright-Glo™ reagent was applied to each well in 96-well plates and signals were detected with the GloRunner™ Microplate Luminometer (Turner Biosystems) using the Dual-Glo® luciferase assay according to the manufacturer's recommendations (E1910, Promega).
In the secondary screen, cells were plated in a 96-well plate as described above for the primary screen.
Some compounds were unavailable outside of the library collections, and could not be further tested.
Each compound and concentration was analyzed in quadruplicate wells.
Compounds were tested at eight different concentrations ranging from 0-20 μM. In addition, GFAP protein levels were measured using a sandwich ELISA, which has greater sensitivity and is more accurate than the cell-based ELISA used in the primary screens.

[3] = test system: 172.9 cells; test: cell viability (CellTiter-Glo) / MTDcc in 172.9 cells
Description: Criterion for acceptable viability was >70% survival.
Cell viability was determined as follows. After exposure to each compound (duplicate wells per compound), 50 μl of CellTitier-Glo Luminescent Cell Viability Assay reagent (G7571, Promega) was added to the 100 μl of media present in each well, and the luminescent signal (reflecting intracellular ATP level) was detected with either a Victor 3-V plate reader (Perkin Elmer) or GloRunner Microplate Luminometer (Turner Biosystems). Cell viability was expressed as a percent of non-treated control cells.
A dose-response curve was created for each compound (0.1, 0.5, 1, 5, 10, 15, 20 μM) using 48 hr exposures. The MTDcc (“maximum tolerated dose—cell culture”) indicates the highest concentration that retained at least 70% cell viability. Each compound and concentration was analyzed in quadruplicate wells. EGCDG: epigallocatechin 3,5-digallate; NPPB: 5-nitro-2-phenylproplyaminobenzoic acid. As used herein, MTDcc refers to the MTD as determined by this assay under the above conditions.

[4] = test system: mGFAP protein; test: cell-based GFAP protein level assay (cell-based ELISA) in 172.9 cells; parameters: species or system mouse; details: for % GFAP reductions, mGFAP protein via ELISA: tertiary screen, 48 hr exposure, at the MTDcc
[5] = tertiary screen, 48 hr exposure, 0.1-20 μM, highest concentration that retained at least 70% cell viability
[6] = secondary screen, 10 μM, 48 hours

Row | Molecule | effect on GFAP protein levels [1] | MTDcc [3, 5] [µM] | % GFAP reductions, mGFAP protein via ELISA [4] [%] | % GFAP reductions, luciferace expression from hGFAP promoter [2] [%] | MTDcc ([3]; mouse, 48 h) [µM] | other results
1 | C=C(C)[C@@H]1CC[C@]2(C(=O)O)CC[C@]3(C)[C@H](CCC4[C@@]5(C)CC[C@H](OC(=O)CN(OC)[C@@H]6OC(CO)[C@@H](O)C(O)C6O)C(C)(C)C5CC[C@]43C)C12 (stereo partly drawn) [D-altroside (ester), (3S)—O—(N-Methoxy-N-β-D-altrosylglycyl)betulinic acid] | reduced GFAP protein levels more than the amide form |  |  |  |  | effect on GFAP promoter activity (luciferase expression driven by the hGFAP promoter) [2]: more dramatic decrease in GFAP promoter activity than the amide form
2 | C=C(C)[C@@H]1CC[C@]2(C(=O)O)CC[C@]3(C)[C@H](CCC4[C@@]5(C)CC[C@H](OC(=O)CN(OC)[C@@H]6OC[C@@H](O)C(O)C6O)C(C)(C)C5CC[C@]43C)C12 (stereo partly drawn) [D-xyloside (ester), (3S)—O—(N-Methoxy-N-β-D-xylosylglycyl)betulinic acid] | reduced GFAP protein levels more than the amide form |  |  |  |  | effect on GFAP promoter activity (luciferase expression driven by the hGFAP promoter) [2]: more dramatic decrease in GFAP promoter activity than the amide form
3 | C=C1CC[C@H](O)C/C1=C/C=C1\CCC[C@]2(C)[C@@H]([C@H](C)CCCC(C)C)CC[C@@H]12 [colecalciferol] |  | >20 | −4.9 | 24 |  | 
4 | COP(=S)(OC)SCn1nnc2ccccc2c1=O [azinphos methyl] |  | >20 | 4.7 | 18 |  | 
5 | pyrogallin |  | >20 | 3.3 | 22 |  | 
6 | CN(CC(=O)O)C(=N)NP(=O)(O)O [phosphocreatine] |  | >20 | 3.8 | 13 |  | 
7 | COc1ccc(C(=O)O)cc1OC [veratic acid] |  | >20 | −0.8 | 6 |  | 
8 | C=C(C)[C@@H]1CC[C@]2(C(=O)O)CC[C@]3(C)[C@H](CCC4[C@@]5(C)CC[C@H](N)C(C)(C)C5CC[C@]43C)C12 (stereo partly drawn) [3-amino betulinic acid, (3S)-Aminobetulinic acid] | reduced GFAP protein levels more than the ester form |  |  |  |  | effect on GFAP promoter activity (luciferase expression driven by the hGFAP promoter) [2]: decrease in GFAP promoter activity
9 | CC/C(=C(\c1ccccc1)c1ccc(OCCN(C)C)cc1)c1ccccc1 [tamoxifen citrate] |  |  | 21.6 | 52 | 7.5 | 
10 | CN1CCC(=C2c3ccccc3CC(=O)c3sccc32)CC1 [ketotifen] |  |  | 8.6 | 25 | >20 | 
11 | C=C(C)[C@@H]1CC[C@]2(C(=O)O)CC[C@]3(C)[C@H](CCC4[C@@]5(C)CC[C@H](NC(=O)CNOC)C(C)(C)C5CC[C@]43C)C12 (stereo partly drawn) [aglycon (amide), (3S)—N—(N′-Methoxyglycyl)aminobetulinic acid] | reduced GFAP protein levels more than the ester form |  |  |  |  | 
12 | NC[C@H]1O[C@H](O[C@H]2[C@H](O)[C@@H](O[C@H]3O[C@H](CO)[C@@H](O)[C@H](N)[C@H]3O)[C@H](N)C[C@@H]2N)[C@H](O)[C@@H](O)[C@@H]1O [kanamycin] |  |  | 11.3 | 22 | >20 | 
13 | C=C(C)[C@@H]1CC[C@]2(C(=O)O)CC[C@]3(C)[C@H](CCC4[C@@]5(C)CC[C@H](OC(=O)CNOC)C(C)(C)C5CC[C@]43C)C12 (stereo partly drawn) [aglycon (ester), (3S)—O—(N-Methoxyglycyl)betulinic acid] | minimal effect |  |  |  |  | effect on GFAP promoter activity (luciferase expression driven by the hGFAP promoter) [2]: decreased luciferase expression
14 | O=c1c(-c2cc(O)c(O)c(O)c2)coc2cc(O)c(O)c(O)c12 [irigenol] |  |  | 1.8 | 28 | >20 | suppression in the protein assay [4, 6]: significant suppression; suppression in the promoter assay [2, 6]: significant suppression
15 | COC(=O)[C@H](O)[C@H]1C(C)(C)[C@H](OC(C)=O)[C@@H]2CC3=C4CC(=O)O[C@@H](c5ccoc5)[C@]4(C)CC[C@@H]3[C@@]1(C)C2=O [swietenolide-3-acetate] |  |  | 0.7 | 8 |  | MTDcc [3]: >20 µM
16 | O=C(N[C@H](CO)[C@H](O)c1ccc([N+](=O)[O-])cc1)C(Cl)Cl [chloramphenicol] |  |  | 0.9 | 16 | >20 | 
